From paper PMC10298530, “Synthesis and Anticancer Activity of A-Ring-Modified Derivatives of Dihydrobetulin” (International Journal of Molecular Sciences, 2023)
Values joined by “and” are separate entries in the source; they are usually repeats but may differ in a detail not shown here. Equal values may be shown once. Read-outs that look alike come from different tables or passages of the source.

Assays:
HBL-100/Dox cells [1] = experiment: Annexin V-FITC/PI assay, HBL-100/Dox; format: cell-based, human; conditions: 16 h
Experimental: Briefly, after exposing the cells to the tested and control compounds for 16 h, the cells were detached with accutase (HiMedia Laboratories, Maharashtra, India) and washed with cold PBS. Then, the cells were re-suspended in 100 μL of 1 × Binding Buffer at concentration 1 × 10^6 cells/mL and incubated with 5 μL Annexin V-FITC and 5 μL propidium iodide (PI) for 15 min at room temperature in darkness. After incubation, 400 μL of 1 × Binding Buffer was added to each tube. The samples were analyzed by flow cytometry (CytoFlex S, Beckman Coulter, Brea, CA, USA) within 1 h of staining, and the findings were analyzed using a trial version of the Kaluza software (Beckman Coulter, Brea, CA, USA).

human cancer cell lines = experiment: MTT assay, panel of cancer cell lines; conditions: for IC50: Homo sapiens
Experimental: In this study, the human embryonic kidney cell line HEK293 was used as the non-cancerous cell line.
To investigate the cytotoxic activity of the compounds under study, the MTT colorimetric assay [45] was performed. […] After 72 h, 20 μL of 5 mg/mL solution of MTT (PanEco, Moscow, Russia), in sterile phosphate-buffered saline (PBS; PanEco, Moscow, Russia), was added to each well and further incubated for 4 h. Then, the medium with the compounds was removed, and the formed formazan crystals were dissolved in 100 μL of DMSO. […] The IC50 values were determined from dose-dependent curves, using Prism 6.0 (GraphPad Software, Boston, MA, USA).

HEpG2 = experiment: MTT cell viability assay, HEpG2; format: cell-based, human; conditions: for IC50: Homo sapiens
Text: (§1) Blokhin National Medical Research Center of Oncology (the Ministry of Health of the Russian Federation, Moscow).

[2] = test system: Active Caspase-3 in HBL-100/Dox cells; experiment: Flow cytometric analysis of active caspase-3, HBL-100/Dox; format: cell-based, human; conditions: for gMIF, Active Caspase-3: 24 h
Experimental: (§2) The cells were detached with accutase (HiMedia Laboratories, Maharashtra, India) and then fixed with 70% ice cold ethanol followed by overnight incubation at 4 °C. The cells were washed twice with PBS, permeabilized using 0.1% Triton X-100 in PBS solution, and subsequently stained with 5 μL of the BD Horizon™ BV605 Rabbit Anti-Active Caspase-3 antibody (BD Biosciences, Franklin Lakes, NJ, USA). The cells were then washed, resuspended in PBS, and analyzed using a CytoFlex S flow cytometer (Beckman Coulter, Brea, CA, USA). Cell fluorescence was evaluated on a CytoFlex S flow cytometer (Beckman Coulter, Brea, CA, USA). The results were analyzed using FlowJo software (ver. X 10.0.7r2, FlowJo Software, San Jose, CA, USA) and represented as geometric mean fluorescence intensity (gMFI).

HBL-100/Dox cells [3] = experiment: Western blotting of cytochrome c, cleaved caspase-9 and -8, HBL-100/Dox; format: cell-based, human; conditions: 16 h, IC50
Experimental: The supernatant (cytosol fraction) and mitochondrial pellets were then collected, and protein concentration was determined by UV […] using 1–100 μg/mL BSA as standard curve concentrations (UV-2600i spectrophotometer; Shimadzu, Tokyo, Japan).
Then, the same protein amounts (20.0 µg in each lane) were loaded and separated by 4–20% Mini-PROTEAN TGX Stain-Free Protein Gels (Bio-Rad Laboratories, Hercules, CA, USA), followed by transferring onto polyvinylidene difluoride (PVDF) membranes. The membranes were blocked with 1% (w/v) casein in Tris-buffered saline containing 0.1% Tween-20 (TBS-T), and were incubated overnight with primary antibodies (1:1000) of Cytochrome c (D18C7) Rabbit mAb, Cleaved Caspase-9 (Asp330) (E5Z7N) Rabbit mAb, Cleaved Caspase-8 (Asp374) (18C8) Rabbit mAb, and β-Actin (D6A8) Rabbit mAb (Cell Signaling Technology, Danvers, MA, USA) for cytosol and mitohondrial fractions at 4 °C. The next day, the PVDF membranes were washed thrice in TBS-T and incubated with HRP-conjugated secondary antibodies (1:1000) (Cell Signaling Technology, Danvers, MA, USA) for 1 h at RT. Immunoreactive proteins were detected by Clarity Western ECL Substrate (Bio-Rad Laboratories, Hercules, CA, USA) and then analyzed on the ChemiDoc MP Imaging system (Bio-Rad Laboratories, Hercules, CA, USA). The proteins were quantified by densitometry using Image Lab software (version 6.0; Bio-Rad Laboratories, Hercules, CA, USA). To normalize protein expression data, a blot with β-Actin was used.

HBL-100/Dox cells [4] = experiment: Hoechst 33342 / TMRE fluorescent microscopy, HBL-100/Dox; format: cell-based, human
Experimental: The DNA marker, termed Hoechst 33342 Ready Flow Reagent, was used as a stock solution (Invitrogen, ThermoFisher Scientific, USA). The mitochondrial marker, LumiTracker Mito TMRE (tetramethylrhodamine, ethyl ester; Lumiprobe, Moscow, Russia), was dissolved in DMSO as 1.0 mM stock solution. The marker of reactive oxygen species, H2DCFDA (Lumiprobe, Moscow, Russia), was dissolved in DMSO as 100.0 μM stock solution. After incubation, the cells were incubated with FBS-free culture medium containing the dye mixture of Hoechst 33342 (final concentration 1.0 μM) and LumiTracker Mito TMRE (final concentration 1.0 μM), or H2DCFDA dye taken alone (final concentration 1.0 μM), for 30 min at 37 °C in darkness. Fluorescence, at 420 nm (Hoechst 33342), at 510 nm (TMRE), and at 575 nm (H2DCFDA), of the test cultures (including controls) was analyzed immediately using a fluorescence microscope CKX 53 (Olympus, Tokyo, Japan). The TMRE fluorescence intensity was quantified using Fiji (ImageJ).

MS = experiment: MTT cell viability assay, MS; format: cell-based, human; conditions: for IC50: Homo sapiens;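 as to IC50 (mean ± SD): MS is a melanocyte cell line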
Text: as §1

[5] = test system: Active Caspase-3 in HBL-100 cells; experiment: Flow cytometric analysis of active caspase-3, HBL-100; format: cell-based, human; conditions: 24 h
Experimental: as §2

HBL-100/Dox cells [6] = experiment: Combined action of compounds, MTT assay on HBL-100/Dox cells; format: cell-based, human
Text: The results were expressed pictorially using Prism 6.0 (GraphPad Software, Boston, MA, USA).

COC(=O)[C@]12CC[C@@H](C(C)C)[C@@H]1[C@H]1CC[C@@H]3[C@@](C)(CCC#N)[C@H](C(=O)C(Br)Br)CC[C@@]3(C)[C@]1(C)CC2 [compound 31, 2-Cyano-24,24-dibromo-4-oxo-3,4-seco-3,23-dinorlupan-28-oic acid methyl ester]
Dead cells (HBL-100/Dox cells [1]; dose 2xIC50): 4.59±0.45%
Viable cells (HBL-100/Dox cells [1]; dose 2xIC50): 78.69 ± 1.29%
Early apoptotic cells (HBL-100/Dox cells [1]; dose 2xIC50, listed as MK): 5.50±0.44%
Late apoptotic cells (HBL-100/Dox cells [1]; dose 2xIC50, listed as MK): 10.94 ± 0.81% and 10.94±0.82%
Dead cells (HBL-100/Dox cells [1]; dose IC50): 2.52±0.08%
Viable cells (HBL-100/Dox cells [1]; dose IC50): 87.82 ± 0.44%
Early apoptotic cells (HBL-100/Dox cells [1]; dose IC50, listed as MK): 5.04 ± 0.51% and 5.04±0.52%
Late apoptotic cells (HBL-100/Dox cells [1]; dose IC50, listed as MK): 4.74 ± 0.44% and 4.74±0.04%
IC50 (human cancer cell lines; read-out: IC50 values (range)): 0.7 to 7.1 µM
IC50 (human cancer cell lines; read-out: cytotoxicity (IC50 range)): 0.7 to 16.6 µM
cytotoxicity in the screening studies (human cancer cell lines; MTT screening, Table S1): pronounced cytotoxic effect
SI (range) (human cancer cell lines; against HBL-100/Dox, HBL-100, and RD TE32 cells): 6.39–16.43
IC50 (HEpG2; HEpG2, MTT, 72 h of treatment, read-out: IC50 Values (Mean ± SD)): 16.6 ± 0.4 µM
IC50 (HEpG2; Table S1, HEpG2, read-out: IC50 (mean ± SD)): 16.6 ± 0.41 µM
Selectivity index (SI) (HEpG2; ratio of IC50 values healthy (HEK293) / HEpG2): 0.69
gMIF, Active Caspase-3 ([2]; dose 2×IC50): 19252±347
gMIF, Active Caspase-3 ([2]; dose IC50): 13428±202
caspase-3 activation in comparison to the HBL-100 cells ([2]; after 24 h of MK treatment): doubly pronounced
activation of caspase-8 (HBL-100/Dox cells [3]): not observed
activation of caspase-9 (HBL-100/Dox cells [3]): sequential activation of initiator caspase-9
cytochrome c release (HBL-100/Dox cells [3]): provoked the release of cytochrome c from mitochondria to cytosol
mitochondrial membrane potential (MMP), TMRE fluorescence intensity (HBL-100/Dox cells [4]; 16 h, vs untreated control): significant (p < 0.05) reduction in MMP
number of cells with nuclear morphology changes (HBL-100/Dox cells [4]; Hoechst 33342, 16 h, IC50 values (MK 1.8 µM)): 33.1%
IC50 (MS; MS, MTT, 72 h of treatment, read-out: IC50 Values (Mean ± SD)): 16.5 ± 1.5 µM
IC50 (MS; Table S1, MS, read-out: IC50 (mean ± SD)): 16.5 ± 1.53 µM
Selectivity index (SI) (MS; ratio of IC50 values healthy (HEK293) / MS): 0.70
gMIF, Active Caspase-3 ([5]; dose 2×IC50): 11048±278
gMIF, Active Caspase-3 ([5]; dose IC50): 6755±301
number of living cells, compound vs its combination with verapamil (HBL-100/Dox cells [6]; 72 h, 30 μM verapamil): remained unchanged
potentiation in the effectiveness of Dox (HBL-100/Dox cells [6]; MK 0.6 μM combined with Dox): no potentiation
